“And” between values parts separate entries of the source, which are not always exact repeats. Identical values can stand only once.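 Method: 48-hour compound exposure of cells in 96-well plates, five concentrations, linear interpolation of endpoints. GI50 marks 50% less growth. TGI is the concentration that stops growth completely.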
Tests used:
Experiment in all cases: growth of human tumour cells (NCI), 48 h
UO-31 renal = test system: UO-31 renal
RPMI-8226 leukemia = test system: RPMI-8226 leukemia
HCT-116 colon = test system: HCT-116 colon
HCC-2998 colon = test system: HCC-2998 colon
OVCAR-3 ovarian = test system: OVCAR-3 ovarian
CAKI-1 renal = test system: CAKI-1 renal
MDA-N = test system: MDA-N
LOX IMVI melanoma = test system: LOX IMVI melanoma
TK-10 renal = test system: TK-10 renal
SF-268 CNS = test system: SF-268 CNS

| Structure (SMILES) | TGI (UO-31 renal) | TGI (RPMI-8226 leukemia) | TGI (HCT-116 colon) | TGI (HCC-2998 colon) | TGI (OVCAR-3 ovarian) | TGI (CAKI-1 renal) | TGI (MDA-N) | TGI (LOX IMVI melanoma) | TGI (TK-10 renal) | GI50 (UO-31 renal) | GI50 (MDA-N) | GI50 (LOX IMVI melanoma) | GI50 (TK-10 renal) | TGI (SF-268 CNS) |
| --- | --- | --- | --- | --- | --- | --- | --- | --- | --- | --- | --- | --- | --- | --- |
| O=[N+]([O-])c1ccc2[nH]c(O)c(N=NC(=S)Nc3ccccc3)c2c1 | 22 µM | > 100 µM | 18.6 µM | 12.4 µM | 22.6 µM | 15.2 µM | 21.7 µM | 24.6 µM | 23.6 µM | – | – | – | – | – |
| CC(Nc1n[nH]c(=O)c2c1nnn2Cc1ccccc1)c1ccccc1 (stereo unspecified) | > 100 µM | > 100 µM | > 100 µM | > 100 µM | > 100 µM | > 100 µM and 52.9 µM | > 100 µM | > 100 µM | > 100 µM and 64.7 µM | > 100 µM and 23.1 µM | > 100 µM and 32.3 µM | > 100 µM and 32.7 µM | 89.3 µM and 23.4 µM | – |
| C=CCC1C2CCC(O[Si](C(C)C)(C(C)C)C(C)C)(C(C(=O)OC)C2)C1O (stereo unspecified) | > 100 µM | > 100 µM | 58.2 µM | – | > 100 µM | > 100 µM | > 100 µM | – | > 100 µM | – | – | – | – | > 100 µM |
| Cc1cc(C#N)c(Nc2ccccc2[N+](=O)[O-])s1 | > 100 µM | > 100 µM | > 100 µM | 91.1 µM | 71.5 µM | > 100 µM | 30.9 µM | – | – | – | – | – | – | > 100 µM |
| CCSC12CC3c4cccc5c4C(CN5C(=O)c4ccccc4)CC3(O1)N(C)C2=O (stereo unspecified) | > 100 µM | – | > 100 µM | – | > 100 µM | > 100 µM | 81.6 µM | > 100 µM | > 100 µM | – | – | – | – | > 100 µM |
| CCOC(=O)c1c(NC(=O)c2ccc(Br)cc2)sc2c1CCCC2 | > 100 µM | > 100 µM | > 100 µM | – | > 100 µM | > 100 µM | > 100 µM | – | > 100 µM | – | – | – | – | > 100 µM |
| COc1nc(C)nc2c1ncn2Cc1ccccc1 | – | > 100 µM | > 100 µM | > 100 µM | > 100 µM | > 100 µM | > 100 µM | > 100 µM | > 100 µM | – | – | – | – | > 100 µM |
| C(=N/NC1=NCCN1)/c1c2ccccc2c(/C=N\NC2=NCCN2)c2ccccc12 | – | 0.798 µM and 2.11 µM and 1.26 µM | 0.468 µM and 1.18 µM and 1.21 µM | 0.439 µM and 0.47 µM and 0.658 µM | 0.561 µM and 0.449 µM and 1.75 µM | 2.78 µM and 5.02 µM and 6.65 µM | 0.69 µM and 1.18 µM | 0.27 µM and 0.332 µM and 1.75 µM | 4.73 µM and 12.9 µM | – | – | – | – | 0.558 µM and 0.722 µM and 0.747 µM |
| CC[C@H](C)[C@H]1NC(=O)[C@@H](NC(=O)[C@@H](CC(C)C)N(C)C(=O)C2CCCN2C(=O)[C@H](C)O)[C@@H](C)OC(=O)[C@H](Cc2ccccc2)N(C)C(=O)[C@@H]2CCCN2C(=O)[C@H](CC(C)C)NC(=O)[C@@H](C)C(=O)[C@H](C(C)C)OC(=O)C[C@@H]1O (stereo partly specified) | < 0.00625 µM | – | 0.00642 µM | 0.00678 µM | 0.0113 µM | – | 0.109 µM | < 0.00625 µM | 0.00848 µM | – | – | – | – | 0.00762 µM |
| N#CCN(Cc1ccccc1)[C@@H]1CCC[C@]1(O)C#Cc1ccc2c(c1)OCO2 | > 100 µM | 42.2 µM | – | 31.5 µM | 28.9 µM | 77.4 µM | 34.2 µM | 30.9 µM | 57.2 µM | – | – | – | – | 41.1 µM |
| Cc1cc(-c2ccc(C(=O)C(c3ccccc3)(c3ccccc3)c3ccccc3)[nH]2)on1 | 30.2 µM | 48.1 µM | 27.9 µM | 25.6 µM | > 100 µM | 69.5 µM | 41 µM | 53.3 µM | – | – | – | – | – | 68.7 µM |
| COc1ccc(/C=C(\Cl)c2ccc(OC)cc2)cc1 | > 100 µM | > 100 µM | > 100 µM | > 100 µM | > 100 µM | > 100 µM | – | > 100 µM | > 100 µM | – | – | – | – | > 100 µM |
| COC(=O)C1=NN2c3ccccc3CN([C@@H](C)c3ccccc3)C(=O)[C@H]2[C@@H]1C | > 100 µM | – | > 100 µM | > 100 µM | > 100 µM | > 100 µM | > 100 µM | > 100 µM | > 100 µM | – | – | – | – | > 100 µM |
| c1cc(C[S+]2CCCC2)oc1C[S+]1CCCC1 | > 100 µM | – | > 100 µM | > 100 µM | > 100 µM | > 100 µM | > 100 µM | > 100 µM | > 100 µM | – | – | – | – | > 100 µM |
| Cc1ccc(-n2cc(-c3ccc(Cl)cc3)c3c2N=CN2NC(c4cccs4)=NC32)cc1 (stereo unspecified) | 27.7 µM | – | 22 µM | > 100 µM | 35 µM | 40.4 µM | > 100 µM | > 100 µM | 27.9 µM | – | – | – | – | 69.5 µM |
| C=C(CC)C[C@@H]1C[C@]2(C(=O)OC)c3[nH]c4ccccc4c3CCN2C1=O | 38.6 µM | – | 29.6 µM | 34.1 µM | 27.9 µM | 48.6 µM | 35.5 µM | 33.5 µM | > 100 µM | – | – | – | – | 51.9 µM |
| COC(=O)CNCC1OC2OC(C)(C)OC2C1N=[N+]=[N-] (stereo unspecified) | > 100 µM | > 100 µM | > 100 µM | – | > 100 µM | > 100 µM | > 100 µM | > 100 µM | > 100 µM | – | – | – | – | – |
| CC(=O)Oc1cc(S(=O)(=O)Nc2n[nH]c(N)n2)c(S)cc1Cl | > 100 µM | > 100 µM | > 100 µM | > 100 µM | > 100 µM | > 100 µM | > 100 µM | > 100 µM | > 100 µM | – | – | – | – | – |
| COc1nc(OC)nc(Sc2ccc(Sc3ccc(Sc4nc(OC)nc(OC)n4)cc3)cc2)n1 | > 100 µM | > 100 µM | > 100 µM | > 100 µM | > 100 µM | > 100 µM | – | > 100 µM | > 100 µM | – | – | – | – | > 100 µM |
| COC(=O)[C@@H]1[C@H](O)CC[C@H]2[C@@]1(C)CC[C@@H](C)[C@]2(COC(C)=O)CC(=O)c1ccoc1 | > 50 µM | > 50 µM | > 50 µM | – | > 50 µM | > 50 µM | > 50 µM | > 50 µM | > 50 µM | – | – | – | – | > 50 µM |
| O=C1Cc2ccccc2CCc2ccsc21 | > 100 µM | > 100 µM | > 100 µM | > 100 µM | > 100 µM | > 100 µM | – | > 100 µM | > 100 µM | – | – | – | – | > 100 µM |
| CCc1n[nH]c(=S)n1/N=C\c1ccc(-c2ccccc2[N+](=O)[O-])o1 | > 100 µM | 88.1 µM | > 100 µM | – | 46.8 µM | > 100 µM | 39.2 µM | > 100 µM | > 100 µM | – | – | – | – | > 100 µM |

From PubChem BioAssay (NCI)
